Data reported in patent US5965575A, “N-aryl piperidine compounds as 5HT1B antagonists” (Adir Et Compagnie, priority 1997, dated 1999).
Values belong to the compound of their own block, whether it stands above or below them.

Columns and labels:
[1] = tested on: extracellular concentration of serotonin; experiment: Microdialysis experiment in rats (frontal cortex); format: in vivo; details: rat frontal cortex dialysate, subcutaneous route, compound alone
Source text: Those tests, carried out in the frontal cortex, make it possible in the case where the products cause an increase in the release of serotonin to envisage their use for depression, impulsive disorders and obesity. If they cause a decrease in the release of serotonin they will be beneficial in the treatment of anxiety, panic attacks, sleep problems, cognitive problems and drug abuse. Finally, if they produce an increase in dopamine and/or noradrenalin, they will be beneficial in the treatment of schizophrenia and, as above, in the treatment of depression and cognitive problems.
The rats are anaesthetised with pentobarbital (60 mg/kg i.p.). […]
Simultaneous quantification of dopamine, norepinephrine and serotonin is carried out as follows: 20 μl of dialysis samples are diluted with 20 μl of mobile phase (NaH2 PO4 : 75 mM, EDTA: 20 μM, sodium dodecanesulphonate: 1 mM, methanol: 17.5%, triethylamine: 0.01%, pH: 5.70) and 33 μl are analysed by HPLC with an inverse phase column (Hypersil ODS 5 μm, C18, 150×4.6 mm, Thermo Separation Products, Les Ulis, France) thermo-statically controlled at 45° C. and quantified by way of a coulometric detector. […] The quantities of neurotransmitters are expressed as a function of the mean of the three base values. […]

5-HT1B = experiment: Hypothermia test in the guinea-pig (antagonism of GR46611); format: in vivo; details: for ΔT ° C. (90 min) / ΔT ° C. (120 min): mean ± s.e.m.
Source text: Using the hypothermia test on the guinea-pig (M. Stingle et al., J. of Psychopharmacology, 1994, 8, 14) it was possible to determine the agonist or antagonist nature of the products of the invention.
The guinea-pigs are kept in batteries of three, with free access to food and water, for one week before entering the study. One hour before each experiment, the guinea-pigs are placed in individual cages with free access to water. They are put back in their respective batteries at the end of each experiment. The temperature measurements are carried out using a digital thermometer and a rectal probe. Each guinea-pig is weighed, its base body temperature is taken and then the compound of the present invention to be evaluated is injected i.p. or p.o.
In the case of an agonist, the body temperature of each guinea-pig is taken every 30 minutes for 2 hours.
In the case of an antagonist, 15 minutes after injection each guinea-pig is injected again i.p. with the prototype agonist 5-HT1B : GR46611 (5 mg/kg/ml). The temperature is then taken every 30 minutes for 2 hours.
The criterion used for evaluation is the difference in temperature at a given time in relation to the base temperature. For each dose of product and for each time (t30, t60, t90, t120) the mean and the standard error of the mean are calculated.

5-HT1B receptor = target: T1, 5-HT1B receptor (Cavia porcellus, UniProt O08892); experiment: 5-HT1B binding ([3H]-GR 125743, guinea-pig striatal membranes); details: [3H]-GR 125743 1 nM, guinea-pig striata membranes
T1 construct: After dissection of guinea-pig brains, the extracted striata are frozen; from tissue; host or cells: guinea-pig striatum membranes
T1 sequence (O08892 whole entry): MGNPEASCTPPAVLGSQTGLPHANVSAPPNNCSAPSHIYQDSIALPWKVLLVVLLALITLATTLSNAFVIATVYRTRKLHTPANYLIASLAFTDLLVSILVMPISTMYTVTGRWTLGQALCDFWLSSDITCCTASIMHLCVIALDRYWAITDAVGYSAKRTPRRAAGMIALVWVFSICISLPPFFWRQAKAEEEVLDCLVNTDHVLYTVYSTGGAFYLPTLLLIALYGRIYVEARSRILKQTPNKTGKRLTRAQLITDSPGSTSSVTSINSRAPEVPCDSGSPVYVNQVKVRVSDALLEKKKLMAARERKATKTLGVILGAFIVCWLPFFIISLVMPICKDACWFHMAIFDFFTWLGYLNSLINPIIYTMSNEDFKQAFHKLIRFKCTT
Experimental: After dissection of guinea-pig brains, the extracted striata are frozen and then homogenised in 20 volumes (weight/volume) of 50 mM tris-HCl (pH 7.7 at room temperature) containing 4 mM CaCl2 and 0.1% ascorbic acid, and centrifuged at 48,000 g for 25 minutes at 4° C. The supernatant is separated and the precipitate is resuspended in the same volume of buffer before being incubated at 37° C. for 15 minutes in order to extract the endogenous serotonin. Finally, the suspension is centrifuged at 48,000 g for 25 minutes at 4° C. and the precipitate is resuspended in 80 volumes of buffer containing 10 μM pargyline.
The binding studies ([^3 H]-GR 125743) are carried out in triplicate in the following buffer: 50 mM tris-HCl (pH 7.7 at room temperature) containing 4 mM CaCl2, 0.1% ascorbic acid and 10 μM pargyline. […]
The data are analysed by non-linear regression using the PRISM programme (Graphpad Software Inc., San Diego, Calif.) in order to determine the Kd values (dissociation constant of the radioligand), the Bmax values (maximum number of sites) for the saturation experiments and the IC50 values (50% inhibiting concentration) and the Hill number for the competition experiments. The inhibition constant (Ki) is calculated according to the Cheng-Prussof equation : Ki =IC50 /1+L/Kd wherein L represents the concentration of the radioligand. The results are expressed as pKi =-log Ki.

5-HT1A receptor = target: T2, 5-HT1A receptor (Rattus norvegicus, UniProt P19327); experiment: 5-HT1A binding
T2 construct: from tissue
T2 sequence (P19327 1-422): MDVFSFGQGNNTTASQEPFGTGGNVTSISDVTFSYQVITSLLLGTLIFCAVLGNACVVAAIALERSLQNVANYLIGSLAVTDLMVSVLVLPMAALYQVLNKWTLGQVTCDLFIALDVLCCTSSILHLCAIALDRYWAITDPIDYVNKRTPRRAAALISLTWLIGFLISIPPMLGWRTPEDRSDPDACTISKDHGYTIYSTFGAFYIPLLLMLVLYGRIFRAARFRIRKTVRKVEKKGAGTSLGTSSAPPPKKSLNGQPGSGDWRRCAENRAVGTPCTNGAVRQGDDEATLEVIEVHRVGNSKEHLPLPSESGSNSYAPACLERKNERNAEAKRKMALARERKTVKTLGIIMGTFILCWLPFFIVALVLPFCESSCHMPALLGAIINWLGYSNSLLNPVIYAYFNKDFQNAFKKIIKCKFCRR
Experimental: The 5-HT1A receptor binding studies were carried out according to methods known and described in the literature (cf. S. J. Peroutka, J. Neurochem, 1986, 47, 529-40, M. J. Millan, J. Pharmacol. Exp. Ther., 1994, 268, 337-52). The results are also expressed as pKi.

[2] = injection 1 Vehicle i.p., injection 2 GR46611 5 mg/kg
[3] = 0.04 mg/kg i.p., then GR46611 5 mg/kg
[4] = 0.16 mg/kg i.p., then GR46611 5 mg/kg

Compound: COc1ccc(CNC(=O)/C=C/c2ccc3[nH]cc(CCN(C)C)c3c2)cc1 [GR46611, reference compound]
extracellular concentration of serotonin [1]: decrease in the extracellular concentration of serotonin
ΔT ° C. (90 min) (5-HT1B; [2]): -1.05 ± 0.13 °C
ΔT ° C. (120 min) (5-HT1B; [2]): -1.40 ± 0.36 °C

Compound: COc1cc2c(cc1OC)-c1cc(CCNC3CCN(c4cccc5c4OCCO5)CC3)cn1CC2 [Example 11, 5,6-dihydro-8,9-dimethoxy-2-{2-{[1-(2,3-dihydro[1,4]benzodioxin-5-yl)-piperid-4-ylamino]ethyl}}pyrrolo[2,1-a]isoquinoline]
ΔT ° C. (90 min) (5-HT1B; [3]): -1.10 ± 0.36 °C
ΔT ° C. (120 min) (5-HT1B; [3]): -1.43 ± 0.24 °C
ΔT ° C. (90 min) (5-HT1B; [4]): -0.57 ± 0.17 °C
ΔT ° C. (120 min) (5-HT1B; [4]): -0.67 ± 0.28 °C
agonist or antagonist nature (5-HT1B; hypothermia test, i.p. route): acts as an antagonist

Ki (5-HT1B receptor): 10 nM
Compound: c1cc2c(c(N3CCC(NCCC45CC6CC(CC(C6)C4)C5)CC3)c1)OCCO2 [Example 9, N-[2-(adamant-1-yl)ethyl]-N-[1-(2,3-dihydro[1,4]benzodioxin-5-yl)-piperid-4-yl]amine]

Ki (5-HT1A receptor): 3160 nM
Compound: c1ccc2c(c1)CC2CNC1CCN(c2cccc3c2OCCO3)CC1 (stereo not shown) [Example 4, N-(benzocyclobuten-1-ylmethyl)-N-[1-(2,3-dihydro[1,4]benzodioxin-5-yl)piperid-4-yl]amine]
